{"source": "patent US7705016B2", "about": "“Regulation of food intake by modulation of long-chain fatty acyl-CoA levels in the hypothalamus” (Albert Einstein College of Medicine of Yeshiva University, priority 2003, dated 2010)", "key": {"CPT1L mRNA": {"test_system": "CPT1L mRNA", "assay": "CPT1L mRNA in hypothalamic nuclei micro punches by real-time PCR after ICV injection", "format": "in vivo, rat", "settings": "3 days after ICV injection; adjusted for β-actin", "procedure": "(§1) Surgical implantation of ICV cannulae was performed on day 1 (˜3 weeks prior to the in vivo study). Full recovery of body weight and food intake was achieved by day 7. Rats randomized for ribozyme treatment received an ICV injection of CPT1L-Ribo, CPT inhibitors or controls on day 17. The experimental group treated with TDGA received ICV injection of the inhibitor on day 21, 6 hr prior to the harvesting of brains. Panels B. and C. show quantitation of CPT1L (B) and CPT1M (C) mRNA by real-time PCR. RNA was purified from individual hypothalamic nuclei (PVN, LHA, and arcuate), which were obtained by micro punch technique 3 days after ICV injection of pTarget control (▪; N=4) or CPT1LRibo (□; N=5). […] CPT1 activity was measured in the particulate fraction of protein extracts from animals treated with ICV control injections (▪; N=6, receiving aCSF+2% DMSO or Control Ribo), TDGA ( ?; N=6), or CPTL-Ribo (□; N=5). […] Levels of stearoyl-CoA (F) and oleyl-CoA (E) respectively were measured by HPLC in arcuate of rats injected ICV with control compound (▪; ST1340) or ST1326 (□).\n(§2) ICV catheters were implanted in male Sprague-Dawley rats by stereotaxic surgery (Obici et al., 2002a; Obici et al., 2001; Liu et al., 1998). […] Thus, we next measured CPT1 activity in ARC and in whole hypothalamus. […]\n(§3) Quantitation of CPT1 and neuropeptides mRNA by Northern and real-time PCR. […]"}, "CPT1M mRNA": {"test_system": "CPT1M mRNA", "assay": "CPT1M mRNA in hypothalamic nuclei micro punches by real-time PCR after ICV injection", "format": "in vivo, rat", "settings": "3 days after ICV injection", "procedure": "as §1, §2, §3"}}, "data": [{"substance": "CPT1L-Ribo: plasmid (pTarget, CMV promoter) expressing a hammerhead ribozyme that specifically cleaves rat CPT1L mRNA, complexed to PEI for ICV injection (DNA CUGUACCAAAGAGCUGUAGAGUCCGUGAGGACGAAACGCCGCUCACAAUG)", "values": [{"measurement": "CPT1L mRNA in the arcuate nuclei (ARC)", "setting": "CPT1L mRNA", "result": "marked decrease"}, {"measurement": "CPT1M mRNA expression in hypothalamic nuclei", "setting": "CPT1M mRNA", "result": "not appreciably altered"}]}]}
